According to ChEMBL document CHEMBL2331154 (J Med Chem, 2013):
Active and inactive are the calls of the source. No cut-off for these calls is given here.

How the values were obtained:
[1] = molecular target: T1, Heat shock protein HSP 90-alpha (Homo sapiens, UniProt P07900); experiment: Binding affinity to recombinant Hsp90 alpha (unknown origin) by surface plasmon resonance
HeLa [2] = experiment: Cytotoxicity against human HeLa cells assessed as cell viability up to 100 uM after 24 hrs by MTT assay; type: cell-based
[3] = molecular target: T1, Heat shock protein HSP 90-alpha; experiment: Inhibition of Hsp90 alpha (unknown origin) assessed as thermal-induced citrate synthase aggregation at 0.3 uM by fluorimetry relative to control
[4] = molecular target: T1, Heat shock protein HSP 90-alpha; experiment: Inhibition of Hsp90 alpha (unknown origin) assessed as thermal-induced citrate synthase aggregation at 4 fold molar excess by fluorimetry
[5] = molecular target: T1, Heat shock protein HSP 90-alpha; experiment: Inhibition of Hsp90 alpha (unknown origin) ATPase activity after 60 mins by fluorimetry
HeLa [6] = experiment: Increase in Hsp70 level in human HeLa cells at 50 uM after 24 hrs by Western blot analysis; type: functional, cell-based
[7] = molecular target: T1, Heat shock protein HSP 90-alpha; experiment: Inhibition of Hsp90 alpha in human HeLa cells assessed as reduction in ERK1/ERK2 level at 50 uM after 24 hrs by Western blot analysis; type: cell-based
[8] = molecular target: T1, Heat shock protein HSP 90-alpha; experiment: Inhibition of Hsp90 alpha in human HeLa cells assessed as reduction in p-AKT level at 50 uM after 24 hrs by Western blot analysis; type: cell-based

SMILES: O=C(OC[C@H]1O[C@@H](O[C@@H]2C[C@@]3(O)CO[C@H]4OCC[C@@H]2[C@H]43)[C@H](O)[C@@H](O)[C@@H]1O)c1ccc(O)cc1
- Kd [1]: Not Active

SMILES: O=C(O[C@@H]1C[C@@](O)(CO)[C@H]2[C@H](O[C@@H]3O[C@H](CO)[C@@H](O)[C@H](O)[C@H]3O)OC=C[C@H]21)c1ccc(O)cc1
- Kd ([1]; read-out: Kd): 31 nM

SMILES: CO[C@H]1C[C@@H]2[C@@H]3[C@@H](OC[C@]3(O)C[C@H]2OC(=O)c2ccc(O)cc2)O1
- Kd [1]: Not Active

SMILES: COc1cc(/C=C/C(=O)O[C@H]2[C@@H]3C=CO[C@@H](O[C@@H]4O[C@H](CO)[C@@H](O)[C@H](O)[C@H]4O)[C@@H]3[C@@]3(CO)O[C@@H]23)ccc1O
- Kd [1]: Not Active

SMILES: O[C@@H]1C[C@@]2(O)CO[C@H]3OCC[C@@H]1[C@H]32
- Kd [1]: Not Active

SMILES: O=C(O[C@@H]1C=C(CO)[C@@H]2[C@H](O[C@@H]3O[C@H](CO)[C@@H](O)[C@H](O)[C@H]3O)OC=C[C@@H]21)c1ccc(O)cc1
- Kd [1]: Not Active

SMILES: COc1cc(/C=C/C(=O)O[C@@H]2C[C@@](O)(CO)[C@H]3[C@H](O[C@@H]4O[C@H](CO)[C@@H](O)[C@H](O)[C@H]4O)OC=C[C@H]32)ccc1O
- Kd [1]: Not Active

SMILES: O=C(/C=C\c1ccc(O)cc1)O[C@@H]1C[C@@](O)(CO)[C@H]2[C@H](O[C@@H]3O[C@H](CO)[C@@H](O)[C@H](O)[C@H]3O)OC=C[C@H]21
- Kd ([1]; read-out: Kd): 73 nM

SMILES: O=C(O[C@@H]1C[C@@]2(O)CO[C@@H]3CC1C2[C@H](O[C@@H]1O[C@H](CO)[C@@H](O)[C@H](O)[C@H]1O)O3)c1ccc(O)cc1
- Kd [1]: Not Active

SMILES: O=C(O[C@H]1[C@@H]2CCO[C@@H](O[C@@H]3O[C@H](CO)[C@@H](O)[C@H](O)[C@H]3O)[C@@H]2[C@@]2(CO)O[C@@H]12)c1ccc(O)cc1
- Kd ([1]; read-out: Kd): 16 nM

SMILES: O=C(OC[C@H]1O[C@@H](O[C@@H]2OC=C[C@@H]3[C@H]2[C@](O)(CO)C[C@H]3OC(=O)c2ccc(O)cc2)[C@H](O)[C@@H](O)[C@@H]1O)c1ccc(O)cc1
- Kd ([1]; read-out: Kd): 139 nM

SMILES: COc1ccc(C=CC(=O)O[C@@H]2C[C@@](O)(CO)[C@H]3[C@H](O[C@@H]4O[C@H](CO)[C@@H](O)[C@H](O)[C@H]4O)OC=C[C@H]32)cc1O (mixture of isomers)
- Kd [1]: Not Active

SMILES: O=C(C=Cc1ccc(O)cc1)O[C@@H]1C[C@@](O)(CO)[C@H]2[C@H](O[C@@H]3O[C@H](CO)[C@@H](O)[C@H](O)[C@H]3O)OC=C[C@H]21 (mixture of isomers)
- Kd [1]: Not Active

SMILES: COc1ccc(C=CC(=O)O[C@@H]2C[C@@](O)(CO)[C@H]3[C@H](O[C@@H]4O[C@H](CO)[C@@H](O)[C@H](O)[C@H]4O)OC=C[C@H]32)cc1 (mixture of isomers)
- Kd [1]: Not Active

SMILES: C[C@H]1[C@H]2[C@H](O[C@@H]3O[C@H](CO)[C@@H](O)[C@H](O)[C@H]3O)OC[C@](C)(O)[C@H]2C[C@@H]1O [ADENOSMOSIDE]
- Kd [1]: Not Active

SMILES: O=C(O[C@H]1[C@@H]2C=CO[C@@H](O[C@@H]3O[C@H](CO)[C@@H](O)[C@H](O)[C@H]3O)[C@@H]2[C@@]2(CO)O[C@@H]12)[C@H]1[C@H](C(=O)O[C@H]2[C@@H]3C=CO[C@@H](O[C@@H]4O[C@H](CO)[C@@H](O)[C@H](O)[C@H]4O)[C@@H]3[C@@]3(CO)O[C@@H]23)[C@@H](c2ccc(O)cc2)[C@@H]1c1ccc(O)cc1 [ARGENTEOSIDE A]
- Activity (HeLa [2]): Non-toxic
- inhibition [3]: Active
- inhibition [4]: Active
- inhibition [5]: Dose-dependent effect
- Kd ([1]; read-out: Kd): 14 nM
- Activity (HeLa [6]): inactive
- inhibition [7]: Active
- inhibition [8]: Active

SMILES: O=C(O[C@H]1[C@@H]2C=CO[C@@H](O[C@@H]3O[C@H](CO)[C@@H](O)[C@H](O)[C@H]3O)[C@@H]2[C@@]2(CO)O[C@@H]12)[C@H]1[C@H](c2ccc(O)cc2)[C@H](C(=O)O[C@H]2[C@@H]3C=CO[C@@H](O[C@@H]4O[C@H](CO)[C@@H](O)[C@H](O)[C@H]4O)[C@@H]3[C@@]3(CO)O[C@@H]23)[C@H]1c1ccc(O)cc1 [ARGENTEOSIDE B]
- inhibition [5]: Dose-dependent effect
- Kd ([1]; read-out: Kd): 50 nM

SMILES: O=C(O[C@@H]1C[C@@]2(O)CO[C@H]3O[C@H](O)C[C@@H]1[C@H]32)c1ccc(O)cc1 [CATALPIN]
- Kd ([1]; read-out: Kd): 5920 nM

SMILES: O=C(O[C@H]1[C@@H]2C=CO[C@@H](O[C@@H]3O[C@H](CO)[C@@H](O)[C@H](O)[C@H]3O)[C@@H]2[C@@]2(CO)O[C@@H]12)c1ccc(O)cc1 [CATALPOSIDE]
- inhibition [5]: Dose-dependent effect
- Kd ([1]; read-out: Kd): 12 nM

SMILES: COc1cc(C(=O)O[C@H]2[C@@H]3C=CO[C@@H](O[C@@H]4O[C@H](CO)[C@@H](O)[C@H](O)[C@H]4O)[C@@H]3[C@@]3(CO)O[C@@H]23)ccc1O [PICROSIDE II]
- Kd [1]: Not Active

SMILES: O[C@H]1[C@@H]2CCO[C@@H]3OC[C@@](O)([C@@H]32)[C@@H]1O [REHMAGLUTIN A]
- Kd ([1]; read-out: Kd): 2390 nM

SMILES: C=C[C@H]1[C@H](O[C@@H]2O[C@H](CO)[C@@H](O)[C@H](O)[C@H]2O)OC=C(C(=O)OC)[C@H]1CC=O [SECOLOGANIN]
- Kd [1]: Not Active

SMILES: O=C(/C=C/c1ccc(O)cc1)O[C@H]1[C@@H]2C=CO[C@@H](O[C@@H]3O[C@H](CO)[C@@H](O)[C@H](O)[C@H]3O)[C@@H]2[C@@]2(CO)O[C@@H]12 [SPECIOSIDE]
- inhibition [5]: Dose-dependent effect
- Kd ([1]; read-out: Kd): 26 nM

SMILES: O=C(/C=C/c1ccc(O)cc1)O[C@H]1[C@@H]2C=CO[C@@H](O[C@@H]3O[C@H](CO)[C@@H](O)[C@H](O)[C@H]3O)[C@@H]2[C@@](O)(CO)[C@@H]1O [STEREOSPERMOSIDE]
- Kd [1]: Not Active

SMILES: C=C[C@H]1[C@H](O[C@@H]2O[C@H](CO)[C@@H](O)[C@H](O)[C@H]2O)OC=C2C(=O)OCC[C@H]21 [SWEROSIDE]
- Kd [1]: Not Active

SMILES: O=C(/C=C/c1ccc(O)c(O)c1)O[C@@H]1C2C=CO[C@H](O[C@@H]3O[C@H](CO)[C@@H](O)[C@H](O)[C@H]3O)C2[C@]2(CO)O[C@H]12 (stereo partly specified) [VERMINOSIDE]
- Kd ([1]; read-out: Kd): 348 nM
